In patent publication US20170210751A1, “PRMT5 INHIBITORS AND USES THEREOF” (Epizyme, Inc., priority 2014, published 2017):

Experiments:
[1] = test system: Symmetric di-Methyl Arginine in Z-138 cells; assay: Z-138 Methylation Assay (In Cell Western for symmetric di-methyl arginine); format: cell-based; details: Homo sapiens, 96 hours incubation, symmetric di-methyl arginine normalised to DNA content, read-out: ICW EC50
Excerpt: Z-138 suspension cells were purchased from ATCC (American Type Culture Collection, Manassas, Va.). RPMI/Glutamax medium, penicillin-streptomycin, heat inactivated fetal bovine serum, and D-PBS were purchased from Life Technologies, Grand Island, N.Y., USA. Odyssey blocking buffer, 800CW goat anti-rabbit IgG (H+L) antibody, and Licor Odyssey infrared scanner were purchased from Licor Biosciences, Lincoln, Nebr., USA. Symmetric di-methyl arginine antibody was purchased from EMD Millipore, Billerica, Mass., USA. 16% Paraformaldehyde was purchased from Electron Microscopy Sciences, Hatfield, Pa., USA.
Z-138 suspension cells were maintained in growth medium (RPMI 1640 supplemented with 10% v/v heat inactivated fetal bovine serum and 100 units/mL penicillin-streptomycin) and cultured at 37° C. under 5% CO2.
Cell Treatment, In Cell Western (ICW) for detection of Symmetric di-Methyl Arginine and DNA content.
Z-138 cells were seeded in assay medium at a concentration of 50,000 cells per mL to a 384-well cell culture plate with 50 μL per well. Compound (100 nL) from 384 well source plates was added directly to 384 well cell plate. Plates were incubated at 37° C., 5% CO2 for 96 hours. After four days of incubation, 40 μL of cells from incubated plates were added to poly-D-lysine coated 384 well culture plates (BD Biosciences 356697). Plates were incubated at room temperature for 30 minutes then incubated at 37° C., 5% CO2 for 5 hours. After the incubation, 40 μL per well of 8% paraformaldehyde in PBS (16% paraformaldahyde was diluted to 8% in PBS) was added to each plate and incubated for 30 minutes. Plates were transferred to a Biotek 405 plate washer and washed 5 times with 100 μL per well of wash buffer (IX PBS with 0.1% Triton X-100 (v/v)). Next […] well of Odyssey blocking buffer were added to each plate and incubated 1 hour at room temperature. Blocking buffer was removed and 20 μL per well of primary antibody was added (symmetric di-methyl arginine diluted 1:100 in Odyssey buffer with 0.1% Tween 20 (v/v)) and plates were incubated overnight (16 hours) at 4° C. Plates were washed 5 times with 100 μL per well of wash buffer. Next 20 μL per well of secondary antibody was added (1:200 800CW goat anti-rabbit IgG (H+L) antibody, 1:1000 DRAQ5 (Biostatus limited) in Odyssey buffer with 0.1% Tween 20 (v/v)) and incubated for 1 hour at room temperature. The plates were washed 5 times with 100 μL per well wash buffer then 1 time with 100 μL per well of water. Plates were allowed to dry at room temperature then imaged on the Licor Odyssey machine which measures integrated intensity at 700 nm and 800 nm wavelengths. Both 700 and 800 channels were scanned.
First, the ratio for each well was determined by:
Each plate included fourteen control wells of DMSO only treatment (minimum inhibition) as well as fourteen control wells for maximum inhibition treated with 3 μM of a reference compound (Background wells). The average of the ratio values for each control type was calculated and used to determine the percent inhibition for each test well in the plate. Reference compound was serially diluted three-fold in DMSO for a total of nine test concentrations, beginning at 3 μM. Percent inhibition was determined and IC50 curves were generated using triplicate wells per concentration of compound.

Z-138 cell line = assay: Z-138 Proliferation Assay (Cell Titer Glo); format: cell-based; details: Homo sapiens, 120 h; Z-138 cells, 5 days incubation, ATP (Cell Titer Glo)
Excerpt: Z-138 Proliferation Assay
Z-138 suspension cells were purchased from ATCC (American Type Culture Collection, Manassas, Va.). RPMI/Glutamax medium, penicillin-streptomycin, heat inactivated fetal bovine serum were purchased from Life Technologies, Grand Island, N.Y., USA. V-bottom polypropylene 384-well plates were purchased from Greiner Bio-One, Monroe, N.C., USA. Cell culture 384-well white opaque plates were purchased from Perkin Elmer, Waltham, Mass., USA. Cell-Titer Glo® was purchased from Promega Corporation, Madison, Wis., USA. SpectraMax M5 plate reader was purchased from Molecular Devices LLC, Sunnyvale, Calif., USA.
Z-138 suspension cells were maintained in growth medium (RPMI 1640 supplemented with 10% v/v heat inactivated fetal bovine serum and cultured at 37° C. under 5% CO2. Under assay conditions, cells were incubated in assay medium (RPMI 1640 supplemented with 10% v/v heat inactivated fetal bovine serum and 100 units/mL penicillin-streptomycin) at 37° C. under 5% CO2.
For the assessment of the effect of compounds on the proliferation of the Z-138 cell line, exponentially growing cells were plated in 384-well white opaque plates at a density of 10,000 cells/ml in a final volume of 50 μl of assay medium. A compound source plate was prepared by performing triplicate nine-point 3-fold serial dilutions in DMSO, beginning at 10 mM (final top concentration of compound in the assay was 20 μM and the DMSO was 0.2%). A 100 nL aliquot from the compound stock plate was added to its respective well in the cell plate. […] After addition of compounds, assay plates were incubated for 5 days at 37° C., 5% CO2, relative humidity >90%.
Cell viability was measured by quantitation of ATP present in the cell cultures, adding 35 μl of Cell Titer Glo® reagent to the cell plates. Luminescence was read in the SpectraMax M5 microplate reader. The concentration of compound inhibiting cell viability by 50% was determined using a 4-parametric fit of the normalized dose response curves.

| SMILES | EC50 [1] | EC50 (Z-138 cell line) |
| --- | --- | --- |
| CC(=O)N1CC(Nc2cc(C(=O)NC[C@H](O)CN3CCc4[nH]ncc4C3)ncn2)C1 [Compound 3-23] | > 1000 nM | > 5000 nM |
| CC(=O)N1CCC(Nc2cc(C(=O)NC[C@H](O)CN3CCc4ncsc4C3)ncn2)CC1 [Compound 1-18, (S)-6-((1-acetylpiperidin-4-yl)amino)-N-(3-(6,7-dihydrothiazolo[5,4-c]pyridin-5(4H)-yl)-2-hydroxypropyl)pyrimidine-4-carboxamide] | > 1000 nM | > 5000 nM |
| CC(=O)N1CCC(Nc2cc(C(=O)NC[C@H](O)CN3CCc4ncsc4C3)ccn2)CC1 [Compound 1-19, (S)-2-((1-acetylpiperidin-4-yl)amino)-N-(3-(6,7-dihydrothiazolo[5,4-c]pyridin-5(4H)-yl)-2-hydroxypropyl)isonicotinamide] | > 1000 nM | > 5000 nM |
| CC(=O)N1CCC(Nc2cc(C(=O)NC[C@H](O)CN3CCc4nn(C)cc4C3)ncn2)CC1 [Compound 3-57] | > 1000 nM | > 5000 nM |
| Cc1nc2c(s1)CN(C[C@@H](O)CNC(=O)c1cc(NC3COC3)ncn1)CC2 [Compound 1-8, (S)—N-(2-hydroxy-3-(2-methyl-6,7-dihydrothiazolo[5,4-c]pyridin-5(4H)-yl)propyl)-6-(oxetan-3-ylamino)pyrimidine-4-carboxamide] | > 1000 nM | > 5000 nM |
| CC(=O)N1CCC(Nc2cc(C(=O)NC[C@H](O)CN3CCc4nn(C)cc4C3)ccn2)CC1 [Compound 3-53] | > 1000 nM | > 5000 nM |
| CC(=O)N1CCC(Nc2cc(C(=O)NC[C@H](O)CN3CCc4[nH]nc(-c5ccccc5)c4C3)ncn2)CC1 [Compound 3-12, (S)-6-((1-acetylpiperidin-4-yl)amino)-N-(2-hydroxy-3-(3-phenyl-6,7-dihydro-1H-pyrazolo[4,3-c]pyridin-5(4H)-yl)propyl)pyrimidine-4-carboxamide] | > 1000 nM | > 5000 nM |
| O=C(NC[C@H](O)CN1CCc2[nH]cnc2C1)c1cc(NC2COC2)ncn1 [Compound 3-38, (S)—N-(3-(6,7-dihydro-1H-imidazo[4,5-c]pyridin-5(4H)-yl)-2-hydroxypropyl)-6-(oxetan-3-ylamino)pyrimidine-4-carboxamide] | > 1000 nM | > 5000 nM |
| CC(=O)N1CC(Nc2cc(C(=O)NC[C@H](O)CN3CCc4cn[nH]c4C3)ncn2)C1 [Compound 3-44] | > 1000 nM | > 5000 nM |
| CC(=O)N1CC(Nc2cc(C(=O)NC[C@H](O)CN3CCc4[nH]nc(-c5ccccc5)c4C3)ncn2)C1 [Compound 3-11, (S)-6-((1-acetylazetidin-3-yl)amino)-N-(2-hydroxy-3-(3-phenyl-6,7-dihydro-1H-pyrazolo[4,3-c]pyridin-5(4H)-yl)propyl)pyrimidine-4-carboxamide] | > 1000 nM | > 5000 nM |
| CC(=O)N1CCC(Nc2cc(C(=O)NC[C@H](O)CN3CCc4ncccc4C3)ncn2)CC1 [Compound 2-14, (S)-6-((1-acetylpiperidin-4-yl)amino)-N-(3-(7,8-dihydro-1,6-naphthyridin-6(5H)-yl)-2-hydroxypropyl)pyrimidine-4-carboxamide] | 101 to 1000 nM | 1000 to 10000 nM |
| CC(=O)N1CCC(Nc2cc(C(=O)NC[C@H](O)CN3CCc4cn[nH]c4C3)ccn2)CC1 [Compound 3-50] | > 1000 nM | > 5000 nM |
| CC(=O)N1CCC(Nc2cc(C(=O)NC[C@H](O)CN3CCc4ccncc4C3)ncn2)CC1 [Compound 2-23, (S)-6-((1-acetylpiperidin-4-yl)amino)-N-(3-(3,4-dihydro-2,7-naphthyridin-2(1H)-yl)-2-hydroxypropyl)pyrimidine-4-carboxamide] | > 1000 nM | > 5000 nM |
| O=C(COc1cccc2cccnc12)NCC(O)CN1CCc2cnccc2C1 (centres unmarked) [Compound 2-7, N-[2-hydroxy-3-(1,2,3,4-tetrahydro-2,6-naphthyridin-2-yl)propyl]-2-(quinolin-8-yloxy)acetamide] | > 1000 nM | > 5000 nM |
| CC(=O)N1CCC(Nc2cc(C(=O)NC[C@H](O)CN3CCc4ccncc4C3)ccn2)CC1 [Compound 2-19, (S)-2-((1-acetylpiperidin-4-yl)amino)-N-(3-(3,4-dihydro-2,7-naphthyridin-2(1H)-yl)-2-hydroxypropyl)isonicotinamide] | > 1000 nM | > 5000 nM |
| CC(=O)N1CCC(Nc2cc(C(=O)NC[C@H](O)CN3CCc4c(cnn4C)C3)ncn2)CC1 [Compound 3-56] | > 1000 nM | > 5000 nM |
| CC(=O)N1CC(Nc2cc(C(=O)NC[C@H](O)CN3CCc4sc(C)nc4C3)ncn2)C1 [Compound 1-27] | > 1000 nM | > 5000 nM |
| O=C(NC[C@H](O)CN1CCc2cnccc2C1)c1cc(NC2COC2)ncn1 [Compound 2-15] | > 1000 nM | > 5000 nM |
| CC(=O)N1CCC(Nc2cc(C(=O)NC[C@H](O)CN3CCc4ncccc4C3)ccn2)CC1 [Compound 2-20, (S)-2-((1-acetylpiperidin-4-yl)amino)-N-(3-(7,8-dihydro-1,6-naphthyridin-6(5H)-yl)-2-hydroxypropyl)isonicotinamide] | 101 to 1000 nM | > 5000 nM |
| Cc1nc2c([nH]1)CCN(C[C@@H](O)CNC(=O)c1cc(NC3COC3)ncn1)C2 [Compound 3-41] | > 1000 nM | > 5000 nM |
| CC(=O)N1CCC(Nc2cc(C(=O)NC[C@H](O)CN3CCc4scc(C)c4C3)ccn2)CC1 [Compound 1-14, (S)-2-((1-acetylpiperidin-4-yl)amino)-N-(2-hydroxy-3-(3-methyl-6,7-dihydrothieno[3,2-c]pyridin-5(4H)-yl)propyl)isonicotinamide] | < 100 nM | 101 to 1000 nM |
| O=C(NC[C@H](O)CN1CCc2[nH]nc(-c3ccccc3)c2C1)c1cc(NC2COC2)ncn1 [Compound 3-17, (S)—N-(2-hydroxy-3-(3-phenyl-6,7-dihydro-1H-pyrazolo[4,3-c]pyridin-5(4H)-yl)propyl)-6-(oxetan-3-ylamino)pyrimidine-4-carboxamide] | > 1000 nM | > 5000 nM |
| CC(=O)N1CC(Nc2cc(C(=O)NC[C@H](O)CN3CCc4cnccc4C3)ncn2)C1 [Compound 2-16] | > 1000 nM | > 5000 nM |
| CC(=O)N1CCC(Nc2cc(C(=O)NC[C@H](O)CN3CCCc4c3cnn4C)ncn2)CC1 [Compound 3-58] | > 1000 nM | > 5000 nM |
| O=C(COc1cccc2cccnc12)NCC(O)CN1CCc2ncccc2C1 (centres unmarked) [Compound 2-6, N-[2-hydroxy-3-(5,6,7,8-tetrahydro-1,6-naphthyridin-6-yl)propyl]-2-(quinolin-8-yloxy)acetamide] | > 1000 nM | > 5000 nM |
